For 18 molecules, EC50 and CC50 results are on record in patent US20220281825A1 (priority 2016, published 2022).

The test system of one data set is JUNV-p. Briefly: organism not typed. Format: cell-based, Junin (JUNV). The following applies: Vero, 24 h, read-out: JUNV-p EC50 (nM).
For another data set, the system named is MACV-p. Put plainly: organism not typed. Type of data set: cell-based, Machupo (MACV). To be noted: Vero, 24 h, read-out: MACV-p EC50 (nM).
The test system of another data set is TCRV-p. Briefly: organism not typed. Type of data set: cell-based. To be noted: Vero, 24 h, read-out: TCRV-p EC50 (nM).
A further data set in a line: in vitro. To be noted: African green monkey.
Another data set deals with LASV-p. Put plainly: organism not typed. Type of data set: cell-based, Lassa (LASV). To be noted: Vero, 24 h, read-out: LASV-p EC50 (nM).

In the case of `CC(C)Oc1ccc(-n2cnc3ccc(-c4ccc5[nH]ccc5c4)nc32)cc1` [Example B3, 5-{3-[4-(propan-2-yloxy)phenyl]-3H-imidazo[4,5-b]pyridin-5-yl}-1H-indole], the EC50 worked out at 1.79 nM with JUNV-p, 10.3 nM in the data set on MACV-p, 27.7 nM in the data set on TCRV-p and 1.01 nM in the data set with LASV-p. The molecule further gave a CC50 in “in vitro” of more than 100000 nM.
In the case of `CC(=O)c1ccc(-c2ccc3ncn(-c4ccc(OC(C)C)cc4)c3n2)cc1` [Example B4, 1-(4-{3-[4-(propan-2-yloxy)phenyl]-3H-imidazo[4,5-b]pyridin-5-yl}phenyl)ethan-1-one], the EC50 in the data set on JUNV-p was found to be 4.31 nM; in the data set on MACV-p, 18.6 nM; in the data set with TCRV-p it was 14.9 nM; in the data set with LASV-p, 0.956 nM. The molecule also gave a CC50 in the data set “in vitro” of 19700 nM.
In the same order, the values of `CC(C)Oc1ccc(-n2cnc3cnc(-c4ccc5[nH]ccc5c4)cc32)cc1` [Example B7, 5-{1-[4-(propan-2-yloxy)phenyl]-1H-imidazo[4,5-c]pyridin-6-yl}-1H-indole] are 16.2 nM, 24.1 nM, more than 25 nM, 8.18 nM and 13900 nM.
For `CC(C)Oc1ccc(-n2cnc3cnc(-c4ccc(C(C)(C)O)cc4)nc32)cc1` [Example B9, 2-(4-{9-[4-(propan-2-yloxy)phenyl]-9H-purin-2-yl}phenyl)propan-2-ol], in that order: 11.9 nM, 29.7 nM, more than 25 nM, 19.7 nM and 27700 nM.
In the same order, the values of `CC(C)Oc1ccc(-n2cnc3cnc(-c4ccc5[nH]ccc5c4)nc32)cc1` [Example B11, 2-(1H-indol-5-yl)-9-[4-(propan-2-yloxy)phenyl]-9H-purine] are 25 nM, 25 nM, more than 25 nM, 6.4 nM and 24200 nM.
Turning to `CC(=O)c1ccc(-c2ccc3nnn(-c4ccc(OC(C)C)cc4)c3c2)cc1` [Example B14, 1-(4-{1-[4-(propan-2-yloxy)phenyl]-1H-1,2,3-benzotriazol-6-yl}phenyl)ethan-1-one], the EC50 is 1.36 nM in the data set with JUNV-p, 15.4 nM with MACV-p, more than 25 nM with TCRV-p and 1.05 nM with LASV-p. Also, the CC50 in “in vitro” was determined as 7390 nM.
With `CC(C)Oc1ccc(-c2cnc3ccc(-c4ccc(C(F)F)cc4)cn23)cc1` [Example C5, 6-[4-(difluoromethyl)phenyl]-3-[4-(propan-2-yloxy)phenyl]imidazo[1,2-a]pyridine], the EC50 in the data set on JUNV-p is 9.09 nM; in the data set on MACV-p, 31.4 nM; with TCRV-p, more than 25 nM; with LASV-p it was 4.1 nM. For the same molecule, the CC50 in the data set “in vitro” turned out to be 4690 nM.
Regarding `CC(C)Oc1ccc(-c2cnc3ccc(-c4ccc5[nH]ncc5c4)cn23)cc1` [Example C10, 5-{3-[4-(propan-2-yloxy)phenyl]imidazo[1,2-a]pyridin-6-yl}-1H-indazole], the EC50 in the data set on JUNV-p is 19 nM; with MACV-p it was 28.9 nM; with TCRV-p, more than 25 nM; in the data set on LASV-p it was 4.61 nM. In addition, the CC50 in “in vitro” is more than 100 nM.
`CC(C)Oc1ccc(-c2cnc3ccc(-c4ccc(C5(O)COC5)cc4)cn23)cc1` [Example C28, 3-(4-{3-[4-(propan-2-yloxy)phenyl]imidazo[1,2-a]pyridin-6-yl}phenyl)oxetan-3-ol]: the EC50 in the data set on JUNV-p was 14.9 nM; in the data set with MACV-p, more than 25 nM; in the data set with TCRV-p, more than 25 nM; in the data set on LASV-p, 17.3 nM. This molecule had a CC50 in the data set “in vitro” of more than 100000 nM.
As to `COCCOc1ccc(-c2cnc3ccc(-c4ccc(OC(C)C)cc4)cn23)cc1` [Example C42, 3-[4-(2-methoxyethoxy)phenyl]-6-[4-(propan-2-yloxy)phenyl]imidazo[1,2-a]pyridine], the EC50 came to 2.6 nM in the data set with JUNV-p, 23.1 nM in the data set on MACV-p, 11.7 nM in the data set with TCRV-p and 3.08 nM in the data set on LASV-p. This molecule also came in with a CC50 in “in vitro” of 5360 nM.
In the same order, the values of `CC(C)Oc1ccc(-c2ccc3ncc(-c4ccc(C5(O)CC5)cc4)n3c2)cc1` [Example C44, 1-(4-{6-[4-(propan-2-yloxy)phenyl]imidazo[1,2-a]pyridin-3-yl}phenyl)cyclopropan-1-ol] are 0.07 nM, 0.32 nM, 0.135 nM, 0.23 nM and more than 100 nM.
In the same order, the values of `CC(C)Oc1ccc(-n2ncc3ccc(-c4ccc5[nH]ccc5c4)cc32)cc1` [Example D2, 6-(1H-indol-5-yl)-1-[4-(propan-2-yloxy)phenyl]-1H-indazole] are 17.8 nM, 22.5 nM, more than 25 nM, 7.99 nM and 4340 nM.
For `CC(=O)c1ccc(-c2ccc3cnn(-c4ccc(OC(C)C)cc4)c3c2)cc1` [Example D3, 1-(4-{1-[4-(propan-2-yloxy)phenyl]-1H-indazol-6-yl}phenyl)ethan-1-one], in that order: 20.2 nM, 15.5 nM, more than 25 nM, 7.04 nM and 15900 nM.
As for `CC(C)Oc1ccc(-n2ccc3ccc(-c4ccc5[nH]ccc5c4)cc32)cc1` [Example D5, 6-(1H-indol-5-yl)-1-[4-(propan-2-yloxy)phenyl]-1H-indole], the EC50 with JUNV-p was 27.8 nM; in the data set with MACV-p, more than 25 nM; with TCRV-p, more than 25 nM; in the data set with LASV-p, 12.5 nM. Moreover, the CC50 in “in vitro” came out at 5.87 nM.
In the case of `CC(C)Oc1ccc(-c2nnc3ccc(-c4ccc5[nH]ccc5c4)cn23)cc1` [Example D7, 5-{3-[4-(propan-2-yloxy)phenyl]-[1,2,4]triazolo[4,3-a]pyridin-6-yl}-1H-indole], the EC50 was 18 nM in the data set with JUNV-p, more than 25 nM with MACV-p, 26.3 nM in the data set on TCRV-p and 4.1 nM with LASV-p. For the same molecule, in the data set “in vitro”, the CC50 stood at 1870 nM.
Consider `CC(C)Oc1ccc(-c2cn3c(-c4ccc5[nH]ccc5c4)cnc3cn2)cc1` [Example D13, 5-{6-[4-(propan-2-yloxy)phenyl]imidazo[1,2-a]pyrazin-3-yl}-1H-indole], for which the EC50 with JUNV-p was 3.29 nM; with MACV-p, 12 nM; in the data set with TCRV-p, 10.3 nM; in the data set on LASV-p, 12.3 nM. Moreover, the CC50 in “in vitro” was more than 100000 nM.
In the same order, the values of `CC(C)Oc1ccc(-c2ccc3noc(-c4ccc(OC(C)C)cc4)c3c2)cc1` [Example D18, 3,5-bis[4-(propan-2-yloxy)phenyl]-2,1-benzoxazole] are 5.58 nM, more than 25 nM, more than 25 nM, more than 25 nM and more than 100000 nM.
For `CC(C)Oc1ccc(-c2ccn3cnc(-c4ccc(OC(C)C)cc4)c3c2)cc1` [Example D19, 1,7-bis[4-(propan-2-yloxy)phenyl]imidazo[1,5-a]pyridine], in that order: more than 25 nM, more than 25 nM, more than 25 nM, more than 25 nM and 7540 nM.
